# ChEMBL document CHEMBL5055672, “Design, Synthesis, Biological Evaluation, and Computational Studies of Novel Fluorinated Candidates as PI3K Inhibitors: Targeting Fluorophilic Binding Sites” (J Med Chem, 2021)
# Experiments:
# CCRF-CEM = assay: Cytotoxicity against human CCRF-CEM cells assessed as growth inhibition at 10 uM after 48 hrs by sulforhodamine B assay; format: functional; conditions: read-out: GI
# HL-60(TB) = assay: Cytotoxicity against human HL-60(TB) cells assessed as growth inhibition at 10 uM after 48 hrs by sulforhodamine B assay; format: functional; conditions: read-out: GI
# K562 = assay: Cytotoxicity against human K562 cells assessed as growth inhibition at 10 uM after 48 hrs by sulforhodamine B assay; format: functional; conditions: read-out: GI
# MOLT-4 = assay: Cytotoxicity against human MOLT-4 cells assessed as growth inhibition at 10 uM after 48 hrs by sulforhodamine B assay; format: functional; conditions: read-out: GI
# RPMI-8226 = assay: Cytotoxicity against human RPMI-8226 cells assessed as growth inhibition at 10 uM after 48 hrs by sulforhodamine B assay; format: functional; conditions: read-out: GI
# SR = assay: Cytotoxicity against human SR cells assessed as growth inhibition at 10 uM after 48 hrs by sulforhodamine B assay; format: functional; conditions: read-out: GI
# A549 = assay: Cytotoxicity against human A549 cells assessed as growth inhibition at 10 uM after 48 hrs by sulforhodamine B assay; format: functional; conditions: read-out: GI
# NCI-H226 = assay: Cytotoxicity against human NCI-H226 cells assessed as growth inhibition at 10 uM after 48 hrs by sulforhodamine B assay; format: functional; conditions: read-out: GI
# NCI-H522 = assay: Cytotoxicity against human NCI-H522 cells assessed as growth inhibition at 10 uM after 48 hrs by sulforhodamine B assay; format: functional; conditions: read-out: GI
# HCC 2998 = assay: Cytotoxicity against human HCC 2998 cells assessed as growth inhibition at 10 uM after 48 hrs by sulforhodamine B assay; format: functional; conditions: read-out: GI
# HCT-15 = assay: Cytotoxicity against human HCT-15 cells assessed as growth inhibition at 10 uM after 48 hrs by sulforhodamine B assay; format: functional; conditions: read-out: GI
# HT-29 = assay: Cytotoxicity against human HT-29 cells assessed as growth inhibition at 10 uM after 48 hrs by sulforhodamine B assay; format: functional; conditions: read-out: GI
# KM12 = assay: Cytotoxicity against human KM12 cells assessed as growth inhibition at 10 uM after 48 hrs by sulforhodamine B assay; format: functional; conditions: read-out: GI
# LOX IMVI = assay: Cytotoxicity against human LOX IMVI cells assessed as growth inhibition at 10 uM after 48 hrs by sulforhodamine B assay; format: functional; conditions: read-out: GI
# M14 = assay: Cytotoxicity against human M14 cells assessed as growth inhibition at 10 uM after 48 hrs by sulforhodamine B assay; format: functional; conditions: read-out: GI
# UACC-62 = assay: Cytotoxicity against human UACC-62 cells assessed as growth inhibition at 10 uM after 48 hrs by sulforhodamine B assay; format: functional; conditions: read-out: GI
# OVCAR-4 = assay: Cytotoxicity against human OVCAR-4 cells assessed as growth inhibition at 10 uM after 48 hrs by sulforhodamine B assay; format: functional; conditions: read-out: GI
# NCI/ADR-RES = assay: Cytotoxicity against human NCI-ADR-RES cells assessed as growth inhibition at 10 uM after 48 hrs by sulforhodamine B assay; format: functional; conditions: read-out: GI
# ACHN = assay: Cytotoxicity against human ACHN cells assessed as growth inhibition at 10 uM after 48 hrs by sulforhodamine B assay; format: functional; conditions: read-out: GI
# CAKI-1 = assay: Cytotoxicity against human CAKI-1 cells assessed as growth inhibition at 10 uM after 48 hrs by sulforhodamine B assay; format: functional; conditions: read-out: GI
# SN12C = assay: Cytotoxicity against human SN12C cells assessed as growth inhibition at 10 uM after 48 hrs by sulforhodamine B assay; format: functional; conditions: read-out: GI
# UO-31 = assay: Cytotoxicity against human UO-31 cells assessed as growth inhibition at 10 uM after 48 hrs by sulforhodamine B assay; format: functional; conditions: read-out: GI
# DU-145 = assay: Cytotoxicity against human DU-145 cells assessed as growth inhibition at 10 uM after 48 hrs by sulforhodamine B assay; format: functional; conditions: read-out: GI
# MCF7 [1] = assay: Cytotoxicity against human MCF7 cells assessed as growth inhibition at 10 uM after 48 hrs by sulforhodamine B assay; format: functional; conditions: read-out: GI
# T47D = assay: Cytotoxicity against human T47D cells assessed as growth inhibition at 10 uM after 48 hrs by sulforhodamine B assay; format: functional; conditions: read-out: GI
# MCF7 [2] = assay: Antiproliferative activity against human MCF7 cells assessed as inhibition of cell growth incubated for 48 hrs by MTT assay; format: functional, cell-based; conditions: MCF7, 48 h
# MCF-10A = assay: Cytotoxicity against human MCF10A cells assessed as inhibition of cell growth incubated for 48 hrs by MTT assay; format: cell-based
# [3] = Selectivity index, ratio of IC50 for human MCF-10A cells to IC50 for human MCF7 cells; format: toxicity; conditions: MCF-10A cells versus MCF7 cells, read-out: Ratio IC50
# [4] = target: Phosphatidylinositol 4,5-bisphosphate 3-kinase catalytic subunit alpha isoform (Homo sapiens, UniProt P42336); assay: Inhibition of PI3Kalpha (unknown origin) using PIP2 as substrate preincubated for 10 mins followed by substrate addition and measured after 1 hr by ELISA
# MCF7 [5] = assay: Induction of cell cycle arrest in human MCF7 cells assessed as accumulation of cells at G phase at IC50 concentration by Propidium iodide staining based flow cytometric analysis (reference value: 1.76%); format: functional
# MCF7 [6] = assay: Induction of cell cycle arrest in human MCF7 cells assessed as accumulation of cells at G1 phase at IC50 concentration by Propidium iodide staining based flow cytometric analysis (reference value: 61.45%); format: functional
# MCF7 [7] = assay: Induction of cell cycle arrest in human MCF7 cells assessed as accumulation of cells at G2/M phase at IC50 concentration by Propidium iodide staining based flow cytometric analysis (reference value: 10.94%); format: functional
# MCF7 [8] = assay: Induction of cell cycle arrest in human MCF7 cells assessed as accumulation of cells at S phase at IC50 concentration by Propidium iodide staining based flow cytometric analysis (reference value: 27.61%); format: functional
# MCF7 [9] = assay: Induction of apoptosis in human MCF7 cells assessed as early apoptotic cells at 2.25 uM after 48 hrs by annexin V-FITC/propidium iodide staining based flow cytometric analysis (reference value: 0.36%); format: functional
# MCF7 [10] = assay: Induction of apoptosis in human MCF7 cells assessed as late apoptotic cells at 2.25 uM after 48 hrs by annexin V-FITC/propidium iodide staining based flow cytometric analysis (reference value: 0.14%); format: functional
# MCF7 [11] = assay: Induction of apoptosis in human MCF7 cells assessed as necrotic cells at 2.25 uM after 48 hrs by annexin V-FITC/propidium iodide staining based flow cytometric analysis (reference value: 1.26%); format: functional
# [12] = target: Phosphatidylinositol 4,5-bisphosphate 3-kinase catalytic subunit beta isoform (Homo sapiens, UniProt P42338); assay: Inhibition of PI3Kbeta (unknown origin) using PIP2 as substrate preincubated for 10 mins followed by substrate addition and measured after 1 hr by ELISA
# [13] = target: T1, Phosphatidylinositol 4,5-bisphosphate 3-kinase catalytic subunit delta isoform (Homo sapiens, UniProt O00329); assay: Inhibition of PI3Kdelta (unknown origin) using PIP2 as substrate preincubated for 10 mins followed by substrate addition and measured after 1 hr by ELISA
# T1 sequence (O00329 whole entry): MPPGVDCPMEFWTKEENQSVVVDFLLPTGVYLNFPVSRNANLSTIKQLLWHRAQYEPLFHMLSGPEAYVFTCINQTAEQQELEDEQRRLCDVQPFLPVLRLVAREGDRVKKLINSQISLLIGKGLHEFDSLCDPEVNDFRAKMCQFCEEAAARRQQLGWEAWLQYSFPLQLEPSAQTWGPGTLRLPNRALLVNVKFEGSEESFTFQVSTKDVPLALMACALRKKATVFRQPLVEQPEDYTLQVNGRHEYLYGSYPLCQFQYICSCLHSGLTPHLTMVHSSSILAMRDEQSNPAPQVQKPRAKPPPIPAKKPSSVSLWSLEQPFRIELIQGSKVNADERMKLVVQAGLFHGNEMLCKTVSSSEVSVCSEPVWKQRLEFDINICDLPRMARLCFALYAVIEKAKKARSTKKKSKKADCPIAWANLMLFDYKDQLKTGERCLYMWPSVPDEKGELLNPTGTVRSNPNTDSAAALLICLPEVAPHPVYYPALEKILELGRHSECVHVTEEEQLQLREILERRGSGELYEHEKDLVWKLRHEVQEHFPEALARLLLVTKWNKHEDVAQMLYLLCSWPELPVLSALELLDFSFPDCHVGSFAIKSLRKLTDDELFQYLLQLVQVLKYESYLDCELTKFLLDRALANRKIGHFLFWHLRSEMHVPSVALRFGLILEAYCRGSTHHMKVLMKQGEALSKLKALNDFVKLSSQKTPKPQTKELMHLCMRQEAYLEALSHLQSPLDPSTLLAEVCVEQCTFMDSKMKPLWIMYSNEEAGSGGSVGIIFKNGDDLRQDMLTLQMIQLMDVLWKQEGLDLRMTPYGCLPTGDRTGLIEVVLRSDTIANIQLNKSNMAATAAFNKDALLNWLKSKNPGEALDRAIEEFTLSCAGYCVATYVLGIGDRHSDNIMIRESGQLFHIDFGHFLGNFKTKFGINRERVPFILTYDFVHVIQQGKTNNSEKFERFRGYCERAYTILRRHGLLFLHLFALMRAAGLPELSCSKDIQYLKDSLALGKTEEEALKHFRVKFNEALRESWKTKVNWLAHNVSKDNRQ
# MCF7 [14] = assay: Induction of apoptosis in human MCF7 cells assessed as early apoptotic cells at 0.72 uM after 48 hrs by annexin V-FITC/propidium iodide staining based flow cytometric analysis (reference value: 0.36%); format: functional
# MCF7 [15] = assay: Induction of apoptosis in human MCF7 cells assessed as late apoptotic cells at 0.72 uM after 48 hrs by annexin V-FITC/propidium iodide staining based flow cytometric analysis (reference value: 0.14%); format: functional
# MCF7 [16] = assay: Induction of apoptosis in human MCF7 cells assessed as necrotic cells at 0.72 uM after 48 hrs by annexin V-FITC/propidium iodide staining based flow cytometric analysis (reference value: 1.26%); format: functional
# Phosphatidylinositol 4,5-bisphosphate 3-kinase catalytic subunit beta isoform, sequence (P42338 whole entry, canonical isoform): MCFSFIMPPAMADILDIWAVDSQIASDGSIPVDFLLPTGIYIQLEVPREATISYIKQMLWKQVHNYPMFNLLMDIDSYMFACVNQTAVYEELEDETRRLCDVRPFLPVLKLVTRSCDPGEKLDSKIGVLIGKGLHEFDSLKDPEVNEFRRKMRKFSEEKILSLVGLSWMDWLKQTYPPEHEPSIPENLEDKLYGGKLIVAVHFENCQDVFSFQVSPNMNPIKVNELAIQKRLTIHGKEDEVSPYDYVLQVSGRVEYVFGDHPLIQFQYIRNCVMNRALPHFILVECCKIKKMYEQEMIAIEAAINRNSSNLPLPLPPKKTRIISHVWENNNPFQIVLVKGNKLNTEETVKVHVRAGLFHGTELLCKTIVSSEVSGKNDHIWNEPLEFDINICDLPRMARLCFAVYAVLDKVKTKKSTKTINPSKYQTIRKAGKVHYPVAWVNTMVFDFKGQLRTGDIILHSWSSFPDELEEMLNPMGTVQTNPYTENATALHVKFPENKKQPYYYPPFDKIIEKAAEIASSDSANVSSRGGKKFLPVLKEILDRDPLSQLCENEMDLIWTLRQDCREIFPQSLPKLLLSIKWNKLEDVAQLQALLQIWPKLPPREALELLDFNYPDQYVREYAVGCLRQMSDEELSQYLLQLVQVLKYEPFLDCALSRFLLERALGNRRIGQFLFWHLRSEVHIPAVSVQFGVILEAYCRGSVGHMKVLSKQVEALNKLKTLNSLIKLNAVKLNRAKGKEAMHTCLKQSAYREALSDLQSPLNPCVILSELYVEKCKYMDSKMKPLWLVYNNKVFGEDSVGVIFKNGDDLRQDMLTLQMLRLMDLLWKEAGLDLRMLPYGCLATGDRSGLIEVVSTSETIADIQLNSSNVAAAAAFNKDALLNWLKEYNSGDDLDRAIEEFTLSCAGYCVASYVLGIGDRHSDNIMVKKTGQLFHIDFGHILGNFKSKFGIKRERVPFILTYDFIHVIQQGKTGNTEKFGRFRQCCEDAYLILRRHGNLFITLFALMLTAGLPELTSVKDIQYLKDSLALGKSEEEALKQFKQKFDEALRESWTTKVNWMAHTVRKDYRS
# Phosphatidylinositol 4,5-bisphosphate 3-kinase catalytic subunit alpha isoform, sequence (P42336 whole entry, canonical isoform): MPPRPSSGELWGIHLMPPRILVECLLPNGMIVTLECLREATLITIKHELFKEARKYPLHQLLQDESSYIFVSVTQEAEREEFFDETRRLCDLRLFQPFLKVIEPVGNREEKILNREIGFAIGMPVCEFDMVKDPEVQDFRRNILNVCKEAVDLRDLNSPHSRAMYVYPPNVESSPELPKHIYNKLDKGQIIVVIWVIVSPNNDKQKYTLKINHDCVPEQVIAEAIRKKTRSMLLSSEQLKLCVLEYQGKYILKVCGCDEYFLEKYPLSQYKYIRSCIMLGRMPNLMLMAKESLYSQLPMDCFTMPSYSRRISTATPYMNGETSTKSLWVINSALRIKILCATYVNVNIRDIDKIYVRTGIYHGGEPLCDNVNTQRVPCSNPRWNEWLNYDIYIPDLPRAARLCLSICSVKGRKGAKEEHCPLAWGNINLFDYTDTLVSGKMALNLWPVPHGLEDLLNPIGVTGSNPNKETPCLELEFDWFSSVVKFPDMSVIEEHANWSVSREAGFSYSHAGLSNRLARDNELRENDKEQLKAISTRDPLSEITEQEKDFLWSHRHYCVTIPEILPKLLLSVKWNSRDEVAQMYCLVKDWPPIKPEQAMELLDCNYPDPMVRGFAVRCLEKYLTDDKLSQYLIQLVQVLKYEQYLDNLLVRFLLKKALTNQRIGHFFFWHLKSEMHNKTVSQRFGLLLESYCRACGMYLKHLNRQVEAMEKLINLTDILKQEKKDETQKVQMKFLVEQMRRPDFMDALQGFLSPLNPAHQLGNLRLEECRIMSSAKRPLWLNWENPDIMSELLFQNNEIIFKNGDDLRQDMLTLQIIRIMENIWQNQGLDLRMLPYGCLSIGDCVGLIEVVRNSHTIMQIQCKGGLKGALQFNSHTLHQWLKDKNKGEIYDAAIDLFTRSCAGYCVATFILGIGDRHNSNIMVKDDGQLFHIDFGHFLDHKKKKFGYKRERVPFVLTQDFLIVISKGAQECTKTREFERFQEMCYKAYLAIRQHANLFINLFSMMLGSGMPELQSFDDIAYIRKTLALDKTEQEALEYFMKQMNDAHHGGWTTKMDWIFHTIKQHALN
smiles,measurement,setting,value
FC(F)(F)COc1ccc(-c2nnc(Nc3ccccc3)s2)cc1,inhibition of growth at 10 µM,CCRF-CEM,19.2%
same,inhibition of growth at 10 µM,HL-60(TB),12.6%
same,inhibition of growth at 10 µM,K562,57.4%
same,inhibition of growth at 10 µM,MOLT-4,24.1%
same,inhibition of growth at 10 µM,RPMI-8226,13.4%
same,inhibition of growth at 10 µM,SR,39.3%
same,inhibition of growth at 10 µM,A549,15%
same,inhibition of growth at 10 µM,NCI-H226,20.5%
same,inhibition of growth at 10 µM,NCI-H522,36.7%
same,inhibition of growth at 10 µM,HCC 2998,27.5%
same,inhibition of growth at 10 µM,HCT-15,50.9%
same,inhibition of growth at 10 µM,HT-29,45.7%
same,inhibition of growth at 10 µM,KM12,57.2%
same,inhibition of growth at 10 µM,LOX IMVI,18.8%
same,inhibition of growth at 10 µM,M14,12.8%
same,inhibition of growth at 10 µM,UACC-62,24.4%
same,inhibition of growth at 10 µM,OVCAR-4,12.8%
same,inhibition of growth at 10 µM,NCI/ADR-RES,10.8%
same,inhibition of growth at 10 µM,ACHN,16.1%
same,inhibition of growth at 10 µM,CAKI-1,50%
same,inhibition of growth at 10 µM,SN12C,13.1%
same,inhibition of growth at 10 µM,UO-31,21.4%
same,inhibition of growth at 10 µM,DU-145,14.8%
same,inhibition of growth at 10 µM,MCF7 [1],21.2%
same,inhibition of growth at 10 µM,T47D,27.7%
same,IC50,MCF7 [2],2.25 µM
same,IC50,MCF-10A,38 µM
same,selectivity ratio,[3],16.9
same,IC50,[4],19.4 µM
same,Activity,MCF7 [5],26.96%
same,Activity,MCF7 [6],66.34%
same,Activity,MCF7 [7],4.55%
same,Activity,MCF7 [8],29.11%
same,Activity,MCF7 [9],4.15%
same,Activity,MCF7 [10],13.09%
same,Activity,MCF7 [11],9.72%
same,IC50,[12],30.7 µM
same,IC50,[13],73.7 µM
O=S(=O)(Oc1ccc(/C=N/N=c2\scc(-c3ccccc3)n2-c2ccccc2)cc1)C(F)(F)C(F)(F)C(F)(F)C(F)(F)F,inhibition of growth at 10 µM,MCF7 [1],65.5%
same,IC50,MCF7 [2],0.72 µM
same,IC50,MCF-10A,28.2 µM
same,selectivity ratio,[3],39.2
same,IC50,[4],5.8 µM
same,Activity,MCF7 [5],42.38%
same,Activity,MCF7 [6],49.27%
same,Activity,MCF7 [7],7.61%
same,Activity,MCF7 [8],43.12%
same,Activity,MCF7 [14],6.18%
same,Activity,MCF7 [15],21.88%
same,Activity,MCF7 [16],14.32%
same,IC50,[12],2.3 µM
same,IC50,[13],7.9 µM
